From ChEMBL document CHEMBL1201862, “PubChem BioAssay data set” (2004)
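The compound was tested at five concentrations on cells cultured in 96-well plates, with a 48-hour exposure period. Abbreviation: GI50, concentration required for 50% inhibition of growth.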 Calls of active or inactive are those of the source. Rule as the data show it: active = GI50 up to about 1.1 µM and inactive = higher.

Legend:
Assay in all cases: NCI-60 cell line screen, 48 h
Malme-3M = system: Malme-3M
COLO 205 = system: COLO 205
U-251 = system: U-251
NCI-H522 = system: NCI-H522
SN12C = system: SN12C
UACC-257 = system: UACC-257
SNB-78 = system: SNB-78
SF-539 = system: SF-539
NCI-H226 = system: NCI-H226
RXF 393 = system: RXF 393
SK-MEL-2 = system: SK-MEL-2
DMS-114 = system: DMS-114
SR = system: SR
SNB-75 = system: SNB-75
A498 = system: A498

With `Cc1nc(Nc2ccccc2)sc1C(=O)CC(=O)C(=O)Nc1c(C(C)C)cccc1C(C)C` as the compound, how does the GI50 (Malme-3M) read?
Its GI50 is > 100 µM (inactive).

What about the GI50 (COLO 205) of the same compound?
Its GI50 is > 100 µM (inactive).

What about the GI50 (U-251) of the same compound?
Its GI50 is > 100 µM (inactive).

What about the GI50 (NCI-H522) of the same compound?
The GI50 was > 100 µM (inactive).

And the GI50 (SN12C)?
Its GI50 is > 100 µM (inactive).

And the GI50 (UACC-257)?
Its GI50 is > 100 µM (inactive).

And the GI50 (SNB-78)?
The GI50 was > 100 µM (inactive).

What about the GI50 (SF-539) of the same compound?
Its GI50 is > 100 µM (inactive).

What about the GI50 (NCI-H226) of the same compound?
Its GI50 is > 100 µM (inactive).

What about the GI50 (RXF 393) of the same compound?
The GI50 was 42 µM (inactive).

What about the GI50 (SK-MEL-2) of the same compound?
The GI50 was > 100 µM (inactive).

And the GI50 (DMS-114)?
The GI50 was 81.7 µM (inactive).

And the GI50 (SR)?
Its GI50 is 20.6 µM (inactive).

How did the GI50 (Malme-3M) turn out when `Cc1nc(C(N)=S)sc1C(=O)/C=C/c1c(O)ccc2ccccc12` was run?
Its GI50 is > 90.2 µM (inactive).

And the GI50 (SNB-75)?
Its GI50 is 53.7 µM (inactive).

And the GI50 (COLO 205)?
Its GI50 is > 100 µM (inactive).

And the GI50 (U-251)?
Its GI50 is > 100 µM (inactive).

And the GI50 (NCI-H522)?
Its GI50 is 26.9 µM (inactive).

And the GI50 (SN12C)?
Its GI50 is > 88.1 µM (inactive).

And the GI50 (UACC-257)?
The GI50 was > 75.9 µM (inactive).

And the GI50 (SNB-78)?
The GI50 was > 100 µM (inactive).

What about the GI50 (SF-539) of the same compound?
Its GI50 is 70.1 µM (inactive).

What about the GI50 (A498) of the same compound?
The GI50 was > 100 µM (inactive).

And the GI50 (NCI-H226)?
The GI50 was > 100 µM (inactive).

And the GI50 (RXF 393)?
Its GI50 is 31.8 µM (inactive).

And the GI50 (SK-MEL-2)?
Its GI50 is > 100 µM (inactive).

What about the GI50 (DMS-114) of the same compound?
The GI50 was 32.5 µM (inactive).

With `O/N=C1/C(=C/c2ccc(Br)cc2)CCCC1C(NO)c1ccc(Br)cc1` (stereo not given) as the compound, how does the GI50 (Malme-3M) read?
Its GI50 is 15.7 µM (inactive).

And the GI50 (SNB-75)?
The GI50 was 19.1 µM (inactive).

And the GI50 (COLO 205)?
Its GI50 is 15.3 µM (inactive).

And the GI50 (U-251)?
The GI50 was 18.9 µM (inactive).

And the GI50 (NCI-H522)?
Its GI50 is 16 µM (inactive).

And the GI50 (SN12C)?
Its GI50 is 12.4 µM (inactive).

What about the GI50 (UACC-257) of the same compound?
Its GI50 is 17.5 µM (inactive).

And the GI50 (SNB-78)?
The GI50 was 13.4 µM (inactive).

And the GI50 (SF-539)?
Its GI50 is 22.4 µM (inactive).

What about the GI50 (A498) of the same compound?
Its GI50 is 10.3 µM (inactive).

What about the GI50 (RXF 393) of the same compound?
The GI50 was 15.6 µM (inactive).

And the GI50 (SK-MEL-2)?
Its GI50 is 16.7 µM (inactive).

What about the GI50 (DMS-114) of the same compound?
The GI50 was 13.5 µM (inactive).

With `Cc1cc(NS(=O)(=O)c2ccc(Nc3c4ccccc4nc4c(C(=O)NCCN(C)C)ccc(Cl)c34)cc2)no1` as the compound, how does the GI50 (SNB-75) read?
Its GI50 is 2.76 µM (inactive).

And the GI50 (COLO 205)?
Its GI50 is 2.45 µM (inactive).

What about the GI50 (U-251) of the same compound?
The GI50 was 2.42 µM (inactive).

What about the GI50 (NCI-H522) of the same compound?
Its GI50 is 0.54 µM (active).

And the GI50 (SN12C)?
Its GI50 is 3.88 µM (inactive).

And the GI50 (SNB-78)?
Its GI50 is 10.7 µM (inactive).

What about the GI50 (SF-539) of the same compound?
Its GI50 is 3.14 µM (inactive).

What about the GI50 (NCI-H226) of the same compound?
The GI50 was 1.85 µM (inactive).

And the GI50 (RXF 393)?
The GI50 was 7.6 µM (inactive).

What about the GI50 (SK-MEL-2) of the same compound?
Its GI50 is 6.1 µM (inactive).

What about the GI50 (DMS-114) of the same compound?
The GI50 was 0.867 µM (active).

What about the GI50 (SR) of the same compound?
Its GI50 is 0.37 µM (active).

For `CCCCCCCCCCCCCCCCCCOCC(C[N+]1(C)CCC(O)CC1)OCC` (stereo not given), which GI50 (Malme-3M) is on record?
Its GI50 is 12.3 µM (inactive).

And the GI50 (SNB-75)?
The GI50 was 3.95 µM (inactive).

And the GI50 (COLO 205)?
The GI50 was 3.38 µM (inactive).

What about the GI50 (NCI-H522) of the same compound?
Its GI50 is 5.71 µM (inactive).

What about the GI50 (SN12C) of the same compound?
Its GI50 is 4.06 µM (inactive).

And the GI50 (UACC-257)?
The GI50 was 10.9 µM (inactive).

What about the GI50 (SNB-78) of the same compound?
Its GI50 is 3.18 µM (inactive).

What about the GI50 (SF-539) of the same compound?
Its GI50 is 14.9 µM (inactive).

What about the GI50 (A498) of the same compound?
The GI50 was 11.7 µM (inactive).

What about the GI50 (NCI-H226) of the same compound?
Its GI50 is 3.08 µM (inactive).

What about the GI50 (SK-MEL-2) of the same compound?
The GI50 was 4.3 µM (inactive).

What about the GI50 (DMS-114) of the same compound?
Its GI50 is 3.19 µM (inactive).

What about the GI50 (SR) of the same compound?
Its GI50 is 1.78 µM (inactive).

For `CCN(CC)c1c(C(=O)/C=C/c2ccc(Cl)cc2)c(-c2ccccc2)nn(C)c1=O`, which GI50 (Malme-3M) is on record?
Its GI50 is 2.22 µM (inactive).

What about the GI50 (SNB-75) of the same compound?
Its GI50 is 2.97 µM (inactive).

What about the GI50 (COLO 205) of the same compound?
The GI50 was 2.03 µM (inactive).

What about the GI50 (U-251) of the same compound?
The GI50 was 1.76 µM (inactive).

What about the GI50 (NCI-H522) of the same compound?
The GI50 was 1.59 µM (inactive).

And the GI50 (SN12C)?
Its GI50 is 2.1 µM (inactive).

And the GI50 (UACC-257)?
Its GI50 is 1.93 µM (inactive).

And the GI50 (SNB-78)?
Its GI50 is 2.61 µM (inactive).

What about the GI50 (A498) of the same compound?
Its GI50 is 2.03 µM (inactive).

What about the GI50 (NCI-H226) of the same compound?
Its GI50 is 2.05 µM (inactive).

What about the GI50 (RXF 393) of the same compound?
Its GI50 is 1.47 µM (inactive).

What about the GI50 (SK-MEL-2) of the same compound?
The GI50 was 1.93 µM (inactive).

And the GI50 (DMS-114)?
Its GI50 is 1.97 µM (inactive).

Which GI50 (Malme-3M) does the source give for `C/C(CC(=O)CCC(=O)Nc1cccc(C(F)(F)F)c1)=N\NC(=O)NN` here?
Its GI50 is > 100 µM (inactive).

What about the GI50 (SNB-75) of the same compound?
The GI50 was > 100 µM (inactive).

What about the GI50 (COLO 205) of the same compound?
Its GI50 is > 100 µM (inactive).

And the GI50 (U-251)?
The GI50 was > 100 µM (inactive).

What about the GI50 (NCI-H522) of the same compound?
Its GI50 is > 100 µM (inactive).

And the GI50 (SN12C)?
The GI50 was > 100 µM (inactive).

And the GI50 (UACC-257)?
The GI50 was > 100 µM (inactive).

What about the GI50 (SNB-78) of the same compound?
Its GI50 is > 100 µM (inactive).

What about the GI50 (SF-539) of the same compound?
Its GI50 is > 100 µM (inactive).

And the GI50 (A498)?
The GI50 was > 100 µM (inactive).

What about the GI50 (NCI-H226) of the same compound?
Its GI50 is > 100 µM (inactive).

And the GI50 (SK-MEL-2)?
Its GI50 is > 100 µM (inactive).

What about the GI50 (DMS-114) of the same compound?
The GI50 was > 100 µM (inactive).

With `CC(=O)NNc1nc(C)c(C(=O)/C=C/c2ccc(N(C)C)cc2)s1` as the compound, how does the GI50 (Malme-3M) read?
Its GI50 is > 100 µM (inactive).

And the GI50 (SNB-75)?
The GI50 was 79.8 µM (inactive).

What about the GI50 (COLO 205) of the same compound?
The GI50 was > 100 µM (inactive).

What about the GI50 (U-251) of the same compound?
Its GI50 is > 100 µM (inactive).

And the GI50 (NCI-H522)?
Its GI50 is > 100 µM (inactive).

What about the GI50 (SN12C) of the same compound?
The GI50 was > 100 µM (inactive).

What about the GI50 (UACC-257) of the same compound?
Its GI50 is > 100 µM (inactive).

What about the GI50 (SNB-78) of the same compound?
Its GI50 is > 100 µM (inactive).

What about the GI50 (SF-539) of the same compound?
The GI50 was > 100 µM (inactive).

And the GI50 (A498)?
Its GI50 is > 100 µM (inactive).

And the GI50 (NCI-H226)?
The GI50 was > 100 µM (inactive).

And the GI50 (RXF 393)?
Its GI50 is 88.9 µM (inactive).

What about the GI50 (SK-MEL-2) of the same compound?
The GI50 was > 100 µM (inactive).

What about the GI50 (DMS-114) of the same compound?
The GI50 was > 100 µM (inactive).
